This experiment relates to root-knot nematodes (Meloidogyne sp), some Pratylenchus sp. The experiment can be described thus: Water screen, plant parasitic nematodes. The format is in vivo. As to the method:
100 microliters containing nematodes were pipetted into 2.5 cm Petri dishes. The nematodes used were principally root-knot nematodes (Meloidogyne sp) but some initial observations were also made on some Pratylenchus sp. and free-living species (non-plant parasites). 900 microliters of Loquat extract, or 500 microliters of Loquat extract plus 400 microliters of water, were added to the nematodes to give concentrations of 90 or 50% of the original Loquat extract. Total added volume was therefore 1 ml.
Controls were nematodes from the same source placed in tap water.
Following application of the Loquat or amygdalin solution, observations were made after 10 minutes, the next day, and after 5 days.

For `N#C[C@H](O[C@@H]1O[C@H](CO[C@@H]2O[C@H](CO)[C@@H](O)[C@H](O)[C@H]2O)[C@@H](O)[C@H](O)[C@H]1O)c1ccccc1` [amygdalin], the Activity of nematodes entry is, setting by setting: (10 minutes, both concentrations (70 mg or 400 mg in 50 ml water)) “still active”; (5 days later, both amygdalin treatments) “still active”; (next day, both amygdalin treatments) “active”. Also, for the setting “in vivo”, the “Activity of amygdalin itself (conclusion)” value is “not active per se”.

The record behind these values is US7442392B2, “Pesticides” (priority 2004, dated 2008).
